# Where a name gives a salt, the structure may show the parent alone.
# Tests used:
# Cbl-b = Cbl-b (Homo sapiens (Human), UniProt Q13191); assay: Cbl-b LCK Ub TR-FRET assay (Cbl-b Lck HTRF); type: biochemical
# Protocol: Compounds were 3-fold serially diluted in DMSO in a 384-well polypropylene plate (#P-05525-BC; Labcyte) to generate a source plate with 10 concentrations of each compound, top concentration=2 mM. 80 nL of DMSO or compounds were transferred to each well of a black 384-well ProxiPlate (#6008260; PerkinElmer) using a Labcyte Echo. 1×assay buffer (50 mM HEPES pH7.0, 100 mM NaCl, 0.01% BSA, 0.01% Triton-X100, 1 mM DTT), 2×enzyme solution (16 nM Biotin-Cbl-b or 12 nM Biotin-c-Cbl in 1× assay buffer), 2×kinase mixture (120 nM His-LCK, 1 mM ATP, 10 mM MgCl2 in assay buffer) and 2.33×detection mixture (4.66×solution 1: 163 nM Anti-HA-D2 antibody (#610HADAB; PerkinElmer), 27.96 nM Streptavidin-EU (#AD0062; PerkinElmer), 1.398 mM EDTA in 1×assay buffer+4.66×solution 2: 2.796 μM UBE2D2/Methylated-HA-Ubiquitin thioester adduct (BostonBiochem) in 1×assay buffer) were prepared. 4 μL of 2× enzyme solution was added to each well containing compound, briefly centrifuged to mix, and incubated for 60 min at room temperature. 4 μL of 2× kinase mixture was added, briefly centrifuged to mix, and incubated for 90 min. at room temperature. 6 μL of detection mixture was added to all wells and briefly centrifuged before incubating for 20 min at room temperature. Plates were read for TR-FRET using an Envision at excitation 340 nm, emission at 615 and 665 nm, 4 flashes per well. IC50 was generated using no LCK as the low control and DMSO as the high control.
# Cbl-b Lck HTRF data in Table 7 is measured according to Example 76 herein; C-cbl Lck HTRF data is measured according to Example 76 herein.
# c-Cbl = c-Cbl (Homo sapiens (Human), UniProt P22681); assay: C-Cbl LCK Ub TR-FRET assay (c-cbl Lck HTRF); type: biochemical; settings: for (fold-selectivity): C-cbl Lck HTRF IC50 relative to Cbl-b Lck HTRF IC50
# Protocol: 6 μL of detection mixture was added to all wells and briefly centrifuged before incubating for 20 min at room temperature. […] IC50 was generated using no LCK as the low control and DMSO as the high control.
# c-Cbl, sequence (P22681 47-435): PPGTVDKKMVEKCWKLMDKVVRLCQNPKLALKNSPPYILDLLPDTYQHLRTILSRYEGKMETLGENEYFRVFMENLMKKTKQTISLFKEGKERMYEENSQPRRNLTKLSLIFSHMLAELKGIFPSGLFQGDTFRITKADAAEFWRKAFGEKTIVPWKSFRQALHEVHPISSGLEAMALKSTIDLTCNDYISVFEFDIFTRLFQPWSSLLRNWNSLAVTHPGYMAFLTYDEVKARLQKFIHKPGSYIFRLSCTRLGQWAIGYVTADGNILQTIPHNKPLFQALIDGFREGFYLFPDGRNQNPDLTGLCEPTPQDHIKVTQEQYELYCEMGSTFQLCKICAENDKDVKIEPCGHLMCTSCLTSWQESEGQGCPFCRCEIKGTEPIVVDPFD
# Cbl-b, sequence (Q13191 40-426): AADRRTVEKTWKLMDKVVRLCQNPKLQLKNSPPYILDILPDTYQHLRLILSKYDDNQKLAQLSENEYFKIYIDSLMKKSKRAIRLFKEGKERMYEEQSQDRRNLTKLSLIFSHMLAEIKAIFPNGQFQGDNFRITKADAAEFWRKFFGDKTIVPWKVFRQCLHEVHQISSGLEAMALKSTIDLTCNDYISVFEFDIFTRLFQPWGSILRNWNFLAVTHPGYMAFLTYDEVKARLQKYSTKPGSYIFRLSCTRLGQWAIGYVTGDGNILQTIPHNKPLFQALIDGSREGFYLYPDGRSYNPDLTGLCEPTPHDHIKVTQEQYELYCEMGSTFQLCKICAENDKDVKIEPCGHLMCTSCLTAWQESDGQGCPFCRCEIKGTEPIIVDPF
Structure (SMILES),IC50 (Cbl-b) [nM],IC50 (c-Cbl) [nM],(fold-selectivity) (c-Cbl) [x]
"Cn1cnnc1[C@H](F)[C@@](C)(F)c1cccc(N2Cc3c(cc(CN4CC(C)(F)C4)cc3C(F)(F)F)C2=O)c1 [Compound 33, 2-(3-((1 S,2S)-1,2-difluoro-1-(4-methyl-4H-1,2,4-triazol-3-yl)propan-2-yl)phenyl)-6-((3-fluoro-3-methylazetidin-1-yl)methyl)-4-(trifluoromethyl)isoindolin-1-one]",890,1900,2.1
Cn1cnnc1[C@@H](F)[C@](C)(F)c1cccc(N2Cc3c(cc(CN4CC(C)(F)C4)cc3C(F)(F)F)C2=O)c1 [Compound 34],380,760,2.0
"CO[C@@H]1CCN(Cc2cc3c(c(C(F)(F)F)c2)CN(c2cccc(C4([C@H](F)c5nncn5C)COC4)c2)C3=O)C1 [Compound 48, 2-(3-(3-((S)-fluoro(4-methyl-4H-1,2,4-triazol-3-yl)methyl)oxetan-3-yl)phenyl)-6-(((R)-3-methoxypyrrolidin-1-yl)methyl)-4-(trifluoromethyl)isoindolin-1-one]",320,780,2.4
"Cn1cnnc1C(F)(F)C1(c2cccc(N3Cc4c(cccc4C(F)(F)F)C3=O)c2)CC1 [Compound 49, 2-(3-(1-(difluoro(4-methyl-4H-1,2,4-triazol-3-yl)methyl)-cyclopropyl)phenyl)-4-(trifluoromethyl)isoindolin-1-one]",1400,2800,2.0
"CC(C)Nc1cc([C@H](C)Cc2nncn2C)cc(N2Cc3c(cc(CN4CCC5(CC5)C4)cc3C(F)(F)F)C2=O)n1.O=CO [Compound 55, (R)-6-((5-azaspiro[2.4]heptan-5-yl)methyl)-2-(6-(isopropylamino)-4-(1-(4-methyl-4H-1,2,4-triazol-3-yl)propan-2-yl)pyridin-2-yl)-4-(trifluoromethyl)isoindolin-1-one formate]",16,26,1.6
"CCOc1cc([C@H](C)Cc2nncn2C)cc(N2Cc3c(cc(CN4CCC5(CC5)C4)cc3C(F)(F)F)C2=O)n1 [Compound 56, (R)-6-((5-azaspiro[2.4]heptan-5-yl)methyl)-2-(6-ethoxy-4-(1-(4-methyl-4H-1,2,4-triazol-3-yl)propan-2-yl)pyridin-2-yl)-4-(trifluoromethyl)isoindolin-1-one formate]",16,22,
"Cn1cnnc1[C@@H](F)C1(c2cccc(N3Cc4c(cc(CC5CNC5)cc4C(F)(F)F)C3=O)c2)COC1 [Compound 58, (S)-6-(azetidin-3-ylmethyl)-2-(3-(3-(fluoro(4-methyl-4H-1,2,4-triazol-3-yl)methyl)oxetan-3-yl)phenyl)-4-(trifluoromethyl)isoindolin-1-one]",200,360,1.8
"Cn1cnnc1[C@H](F)C1(c2cccc(N3Cc4c(cccc4C(F)F)C3=O)c2)COC1 [Compound 59, (R)-4-(difluoromethyl)-2-(3-(3-(fluoro(4-methyl-4H-1,2,4-triazol-3-yl)methyl)oxetan-3-yl)phenyl)isoindolin-1-one]",590,1300,2.1
"Cn1cnnc1CC1(c2cccc(N3Cc4c(cc(CN)cc4C(F)(F)F)C3=O)c2)COC1 [Compound 66, 6-(aminomethyl)-2-(3-(3-((4-methyl-4H-1,2,4-triazol-3-yl)methyl)oxetan-3-yl)phenyl)-4-(trifluoromethyl)isoindolin-1-one formate]",76,100,
"Cn1cnnc1[C@@H](F)C1(c2cccc(N3Cc4c(cc(CN)cc4C(F)(F)F)C3=O)c2)COC1 [Compound 69, (S)-6-(aminomethyl)-2-(3-(3-(fluoro(4-methyl-4H-1,2,4-triazol-3-yl)methyl)oxetan-3-yl)phenyl)-4-(trifluoromethyl)isoindolin-1-one]",210,340,1.6
"Cn1cnnc1[C@@H](F)C1(c2cccc(N3Cc4c(cc(CN5CCC5)cc4C(F)(F)F)C3=O)c2)COC1 [Compound 71, (S)-6-(azetidin-1-ylmethyl)-2-(3-(3-(fluoro(4-methyl-4H-1,2,4-triazol-3-yl)methyl)oxetan-3-yl)phenyl)-4-(trifluoromethyl)isoindolin-1-one]",240,400,1.7
"Cn1cnnc1[C@@H](F)C1(c2cccc(N3Cc4c(cc(CN5CC(C)(CO)C5)cc4C(F)(F)F)C3=O)c2)COC1 [Compound 75, (S)-2-(3-(3-(fluoro(4-methyl-4H-1,2,4-triazol-3-yl)methyl)oxetan-3-yl)phenyl)-6((3-(hydroxymethyl)-3-methylazetidin-1-yl)methyl)-4-(trifluoromethyl)isoindolin-1-one]",250,580,2.3

# Further compounds by falling IC50 (Cbl-b), results first:
IC50 (Cbl-b) [nM],IC50 (c-Cbl) [nM],(fold-selectivity) (c-Cbl) [x],Structure (SMILES)
140,300,2.2,"Cn1cnnc1[C@@H](F)C1(c2cccc(N3Cc4c(cc(CN5CC(C)(C)C5)cc4C(F)(F)F)C3=O)c2)COC1 [Compound 73, (S)-6-((3,3-dimethylazetidin-1-yl)methyl)-2-(3-(3-(fluoro(4-methyl-4H-1,2,4-triazol-3-yl)methyl)oxetan-3-yl)phenyl)-4-(trifluoromethyl)isoindolin-1-one]"
100,180,1.8,"CO[C@@H]1CCN(Cc2cc3c(c(C(F)(F)F)c2)CN(c2cccc(C4([C@@H](F)c5nncn5C)COC4)c2)C3=O)C1 [Compound 47, 2-(3-(3-((R)-fluoro(4-methyl-4H-1,2,4-triazol-3-yl)methyl)oxetan-3-yl)phenyl)-6-(((R)-3-methoxypyrrolidin-1-yl)methyl)-4-(trifluoromethyl)isoindolin-1-one]"
62,150,2.4,"Cn1cnnc1[C@H](F)C1(c2cccc(N3Cc4c(cc(CN5CC(C)(O)C5)cc4C(F)(F)F)C3=O)c2)CC(F)(F)C1 [Compound 51, (R)-2-(3-(3,3-difluoro-1-(fluoro(4-methyl-4H-1,2,4-triazol-3-yl)methyl)cyclobutyl)-phenyl)-6-((3-hydroxy-3-methylazetidin-1-yl)methyl)-4-(trifluoromethyl)isoindolin-1-one]"
62,130,2.1,"Cn1cnnc1[C@@H](F)C1(c2cccc(N3Cc4c(cc(CN5CC(C)(O)C5)cc4C(F)(F)F)C3=O)c2)CC(F)(F)C1 [Compound 52, (S)-2-(3-(3,3-difluoro-1-(fluoro(4-methyl-4H-1,2,4-triazol-3-yl)methyl)cyclobutyl)-phenyl)-6-((3-hydroxy-3-methylazetidin-1-yl)methyl)-4-(trifluoromethyl)isoindolin-1-one]"
55,110,2.1,"Cn1cnnc1[C@H](F)C1(c2cccc(N3Cc4c(cc(CN5CC(C)(C)C5)cc4C(F)(F)F)C3=O)c2)COC1 [Compound 72, (R)-6-((3,3-dimethylazetidin-1-yl)methyl)-2-(3-(3-(fluoro(4-methyl-4H-1,2,4-triazol-3-yl)methyl)oxetan-3-yl)phenyl)-4-(trifluoromethyl)isoindolin-1-one]"
49,67,1.4,"Cn1cnnc1[C@H](F)C1(c2cccc(N3Cc4c(cc(CC5CNC5)cc4C(F)(F)F)C3=O)c2)COC1 [Compound 57, (R)-6-(azetidin-3-ylmethyl)-2-(3-(3-(fluoro(4-methyl-4H-1,2,4-triazol-3-yl)methyl)oxetan-3-yl)phenyl)-4-(trifluoromethyl)isoindolin-1-one]"
34,63,1.9,"Cn1cnnc1[C@H](F)C1(c2cccc(N3Cc4c(cc([C@@H](N)C5CC5)cc4C(F)(F)F)C3=O)c2)COC1 [Compound 53, 6-((S)-amino(cyclopropyl)methyl)-2-(3-(3-((R)-fluoro(4-methyl-4H-1,2,4-triazol-3-yl)methyl)oxetan-3-yl)phenyl)-4-(trifluoromethyl)isoindolin-1-one]"
29,46,1.6,"Cn1cnnc1[C@H](F)C1(c2cccc(N3Cc4c(cc([C@H](N)C5CC5)cc4C(F)(F)F)C3=O)c2)COC1 [Compound 54, 6-((R)-amino(cyclopropyl)methyl)-2-(3-(3-((R)-fluoro(4-methyl-4H-1,2,4-triazol-3-yl)methyl)oxetan-3-yl)phenyl)-4-(trifluoromethyl)isoindolin-1-one]"
